Laboratory results: ChEMBL document CHEMBL4177631, “Polyhydroxylated azetidine iminosugars: Synthesis, glycosidase inhibitory activity and molecular docking studies” (Bioorg Med Chem Lett, 2017)
The source made the active and inactive calls. The rule behind the calls is not given here.

Experiments:
[1] = Inhibition of Aspergillus niger amyloglucosidase using starch as substrate after 10 mins by Miller method
[2] = target: T1, Alpha-glucosidase (Aspergillus niger, UniProt P56526); experiment: Inhibition of Aspergillus niger alpha-glucosidase using p-nitrophenyl-alpha-D-glucopyranoside as substrate preincubated for 1 hr followed by substrate addition measured after 10 mins by spectrophotometric method
T1 sequence (P56526 whole entry): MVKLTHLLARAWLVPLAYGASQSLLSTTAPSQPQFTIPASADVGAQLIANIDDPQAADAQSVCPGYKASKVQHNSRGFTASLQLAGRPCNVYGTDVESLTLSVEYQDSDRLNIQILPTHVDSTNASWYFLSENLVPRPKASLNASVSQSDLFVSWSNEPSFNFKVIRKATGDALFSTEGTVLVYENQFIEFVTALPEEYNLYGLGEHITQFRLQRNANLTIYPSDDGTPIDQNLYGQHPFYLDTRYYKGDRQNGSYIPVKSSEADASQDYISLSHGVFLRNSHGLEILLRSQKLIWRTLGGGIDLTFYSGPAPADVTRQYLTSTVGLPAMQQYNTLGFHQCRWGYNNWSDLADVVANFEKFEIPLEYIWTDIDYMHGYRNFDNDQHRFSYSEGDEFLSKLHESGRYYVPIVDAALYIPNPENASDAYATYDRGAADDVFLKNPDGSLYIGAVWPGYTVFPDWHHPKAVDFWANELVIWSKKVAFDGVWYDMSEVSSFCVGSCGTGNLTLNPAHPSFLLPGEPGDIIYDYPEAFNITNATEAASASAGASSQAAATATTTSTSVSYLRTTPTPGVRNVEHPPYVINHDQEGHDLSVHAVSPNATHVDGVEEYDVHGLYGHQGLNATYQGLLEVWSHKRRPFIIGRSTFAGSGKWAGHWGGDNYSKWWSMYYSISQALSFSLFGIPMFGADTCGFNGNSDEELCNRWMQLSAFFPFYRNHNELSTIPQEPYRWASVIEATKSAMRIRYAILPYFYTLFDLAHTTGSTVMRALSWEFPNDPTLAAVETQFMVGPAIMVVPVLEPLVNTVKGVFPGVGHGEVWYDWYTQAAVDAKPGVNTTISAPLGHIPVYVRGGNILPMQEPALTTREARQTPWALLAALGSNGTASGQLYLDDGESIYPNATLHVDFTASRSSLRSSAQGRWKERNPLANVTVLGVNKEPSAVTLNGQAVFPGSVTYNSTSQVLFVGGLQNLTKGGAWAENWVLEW

[3] = target: T2, Alpha-galactosidase (Escherichia coli) (UniProt P16551); experiment: Inhibition of Escherichia coli alpha-galactosidase at 1 mM using p-nitrophenyl-alpha-D-galactopyranoside as substrate preincubated for 1 hr followed by substrate addition measured after 10 mins by spectrophotometric method
T2 sequence (whole entry): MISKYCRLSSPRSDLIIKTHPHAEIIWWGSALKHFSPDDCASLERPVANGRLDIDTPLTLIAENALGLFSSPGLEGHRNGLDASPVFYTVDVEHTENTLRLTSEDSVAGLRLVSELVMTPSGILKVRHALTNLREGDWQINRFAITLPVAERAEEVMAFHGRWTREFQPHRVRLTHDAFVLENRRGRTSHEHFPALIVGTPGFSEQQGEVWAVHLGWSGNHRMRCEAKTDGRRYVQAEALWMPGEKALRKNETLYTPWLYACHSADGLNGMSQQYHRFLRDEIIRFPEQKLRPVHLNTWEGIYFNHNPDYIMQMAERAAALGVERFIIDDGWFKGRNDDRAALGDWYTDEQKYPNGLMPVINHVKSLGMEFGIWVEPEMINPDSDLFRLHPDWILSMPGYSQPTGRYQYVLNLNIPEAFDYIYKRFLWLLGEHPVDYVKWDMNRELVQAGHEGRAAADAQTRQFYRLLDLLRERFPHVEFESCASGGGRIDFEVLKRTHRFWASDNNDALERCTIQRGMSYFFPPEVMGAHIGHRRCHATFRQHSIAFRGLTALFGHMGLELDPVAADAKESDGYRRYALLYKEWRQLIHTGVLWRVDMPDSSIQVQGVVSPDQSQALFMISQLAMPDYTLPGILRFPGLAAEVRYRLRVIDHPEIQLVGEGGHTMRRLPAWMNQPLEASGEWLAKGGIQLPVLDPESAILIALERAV

[4] = target: T3, Alpha-galactosidase (Escherichia coli, UniProt P16551); experiment: Inhibition of Escherichia coli alpha-galactosidase using p-nitrophenyl-alpha-D-galactopyranoside as substrate preincubated for 1 hr followed by substrate addition measured after 10 mins by spectrophotometric method
T3 sequence (P16551 whole entry): T2 sequence (whole entry)

[5] = target: T4, Alpha-mannosidase (Canavalia ensiformis, UniProt C0HJB3); experiment: Inhibition of Canavalia ensiformis alpha-mannosidase using p-nitrophenyl-alpha-D-mannopyranoside as substrate preincubated for 1 hr followed by substrate addition measured after 10 mins by spectrophotometric method
T4 sequence (C0HJB3 whole entry): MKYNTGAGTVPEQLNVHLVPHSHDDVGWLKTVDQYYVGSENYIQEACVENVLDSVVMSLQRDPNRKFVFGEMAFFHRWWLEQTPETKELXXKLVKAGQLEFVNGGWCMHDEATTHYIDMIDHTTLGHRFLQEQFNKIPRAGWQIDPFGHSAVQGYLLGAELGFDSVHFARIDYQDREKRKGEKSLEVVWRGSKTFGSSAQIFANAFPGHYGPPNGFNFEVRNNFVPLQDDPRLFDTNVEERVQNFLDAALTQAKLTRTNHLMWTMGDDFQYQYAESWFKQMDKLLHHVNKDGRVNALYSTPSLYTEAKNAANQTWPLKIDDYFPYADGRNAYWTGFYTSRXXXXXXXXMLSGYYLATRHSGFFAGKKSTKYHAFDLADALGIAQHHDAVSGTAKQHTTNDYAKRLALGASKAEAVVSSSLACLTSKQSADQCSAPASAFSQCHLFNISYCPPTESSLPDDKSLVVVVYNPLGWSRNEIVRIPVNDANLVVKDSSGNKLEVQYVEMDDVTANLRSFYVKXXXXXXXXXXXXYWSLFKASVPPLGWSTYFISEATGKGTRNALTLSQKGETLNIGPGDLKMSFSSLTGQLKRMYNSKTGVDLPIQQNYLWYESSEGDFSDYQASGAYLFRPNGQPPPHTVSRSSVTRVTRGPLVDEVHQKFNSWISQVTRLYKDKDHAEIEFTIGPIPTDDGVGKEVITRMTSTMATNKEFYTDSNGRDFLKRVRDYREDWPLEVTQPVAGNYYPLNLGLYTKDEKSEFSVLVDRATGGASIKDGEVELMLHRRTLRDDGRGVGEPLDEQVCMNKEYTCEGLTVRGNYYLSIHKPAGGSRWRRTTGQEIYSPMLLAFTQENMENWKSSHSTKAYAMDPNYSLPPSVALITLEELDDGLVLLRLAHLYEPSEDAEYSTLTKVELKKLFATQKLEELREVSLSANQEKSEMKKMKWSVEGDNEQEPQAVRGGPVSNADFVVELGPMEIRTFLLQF

[6] = tested on: Aspergillus niger; experiment: Inhibition of Aspergillus niger amyloglucosidase at 1 mM using starch as substrate after 10 mins by Miller method

IC50 [1] [µM] | IC50 [2] [µM] | inhibition [3] | IC50 [4] [µM] | IC50 [5] [µM] | inhibition [6] | Compound
201 | 57.1 | inactive |  |  |  | OCCN1C[C@H](O)[C@@H](O)[C@H](O)[C@H]1CO [MIGLITOL]
78.2 | 53.7 |  | 54.6 | 76 |  | OC[C@@H]1N[C@H]([C@@H](O)CO)[C@@H]1O
817 | 89.4 | inactive |  | 200 |  | OC[C@@H]1N[C@H](CO)[C@@H]1O
 | 64.6 | inactive |  | 83.8 | inactive | CN1[C@H](C(=O)O)[C@H](O)[C@@H]1CO
